Measurements published in patent US8703431B2, “Polypeptides for the in vitro assessment of the sensitising potential of a test compound” (Immunosearch, priority 2009, dated 2014).

Assays:
[1] = test system: polypeptide of sequence SEQ ID NO: 18 (Ac-RFAAKAA-NH2); assay: HPLC test of % fixing of test compound on polypeptide (positive control peptide); type: binding; conditions: 0.5 mM polypeptide, 5 mM test compound, 100 mM ammonium acetate buffer pH 10.2, 30° C., 4 hours, darkness
Protocol: (§1) A test with 0.5 mM of polypeptide and 5 mM of test compound is carried out under the following conditions:
(§2) The reaction mixture containing 40 μl of peptide solution (1.25 mM stock solution in a 100 mM ammonium acetate buffer at pH 10.2 and the polypeptide of sequence SEQ ID NO: 18, SEQ ID NO: 7 in which X1, X2, X3 and X4 each represents a lysine, or SEQ ID NO: 8 in which X1, X2, X3 and X4 each represents a lysine), 35 μl of 100 mM ammonium acetate buffer solution, at pH 10.2, 20 μl of acetonitrile and 5 μl of solution to be tested (100 mM stock solution in acetonitrile or a 50% acetonitrile 50% DMSO mixture) was prepared and then stirred.
The sequence SEQ ID NO: 18, which is not a lipocalin derivative, was used as a positive control. This sequence corresponds to the following sequence:
(§3) The reaction mixture was then put to incubate at 30° C. for 4 hours and in darkness.
(§4) HPLC analysis was then carried out at a gradient of 10% to 45% of buffer B (acetonitrile+0.08% of trifluoroacetic acid (TFA)) in 20 minutes (buffer A: water+0.1% of TFA), rate 1 ml/minute. Detection was carried out under UV at 230 nm.
(§5) The control without allergen consisted of 40 μl of buffer solution.

[2] = test system: polypeptide SEQ ID NO: 1 wherein X1, X2, X3 and X4 each represent a lysine, having an NH2 group at its C-Terminal end; assay: HPLC test of % fixing of test compound on polypeptide; type: binding
Protocol: as §1, §2, §3, §4, §5
(§6) A test with twice 0.5 mM of polypeptides of sequences SEQ ID NO: 19 and SEQ ID NO: 1 wherein X1, X2, X3 and X4 each represent a lysine, and having an NH2 group at its C-Terminal end, and SEQ ID NO: 8 wherein X1, X2, X3 and X4 each represent a lysine, and 5 mM of test compound, was carried out in accordance with the same protocol as that described for example 1.
(§7) The buffer used was TRIS-HCl at 100 mM.
It should be noted, in the case of the tests of SEQ ID NO: 1, the signal was disturbed, preventing measurements greater than 82-83% fixing. These values consequently represent a minimum.
A coelution of the polypeptide with the allergens cinnamic aldehyde and 1,2-Benzisothiazolin-3-one was observed.

[3] = molecular target: T1, polypeptide SEQ ID NO: 8 in which X1, X2, X3 and X4 each represents a lysine (Mus musculus, UniProt O09114); assay: as above; type: binding; conditions: 5 mM test compound
T1 construct: made in house; host or cells: chemical peptide synthesis (Fmoc)
T1 sequence (O09114 148-173 limits assumed): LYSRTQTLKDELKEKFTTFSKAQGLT
Protocol: as §1, §2, §3, §4, §5
(§8) The buffer used was 100 Mm TRIS-HCl at pH 8.3, pH 9.2 and pH 8.8.
as §7, §6

[4] = molecular target: T2, polypeptide SEQ ID NO: 7 in which X1, X2, X3 and X4 each represents a lysine (Mus musculus, UniProt P11672, DEL176-176); assay: as above; type: binding; conditions: 0.5 mM polypeptide, 5 mM test compound, 100 mM ammonium acetate buffer pH 10.2, 30° C., 4 hours, darkness
T2 construct: made in house; host or cells: chemical peptide synthesis (Fmoc)
T2 sequence (P11672 with tags, fused parts or gaps DEL176-176 limits assumed): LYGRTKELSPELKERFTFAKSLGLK
Protocol: as §1, §2, §3, §4, §5

[5] = test system: polypeptide of sequence SEQ ID NO: 19 (Ac-RFAACAA-NH2); assay: HPLC test of % fixing of test compound on polypeptide (positive control peptide); type: binding; conditions: 5 mM test compound
Protocol: as §1, §2, §3, §4, §5
A test with 0.5 mM of polypeptide of sequence […] and 5 mM of test compound was carried in accordance with the same protocol as that described for example 1.
The sequence SEQ ID NO: 19, which is not a lipocalin derivative, was used as a positive control. This sequence corresponds to the following sequence:
The buffer used was 100 mM TRIS-HCl at pH 8.3.
as §8, §7, §6

[6] = skin sensitisation, as stated in the description; cited from earlier work

For `CCCCCCCCCCCCOC(=O)c1cc(O)c(O)c(O)c1` [LG, lauryl gallate], the “% fixing, SEQ ID NO: 18” value [1] was 62%, the “% fixing, SEQ ID NO: 1 (X1-X4 lysine, NH2 group at C-Terminal end)” value ([2]; Example 5, 5 mM test compound, TRIS-HCl 100 mM, signal disturbed, preventing measurements greater than 82-83% fixing, these values represent a minimum) was 41.5% and the “precipitation of test compound during measurements with SEQ ID NO: 1” value ([2]; Example 5 conditions, explains the medium fixing results) was “very greatly precipitated”. The “% fixing, SEQ ID NO: 8 (X1-X4 lysine)” value ([3]; 0.5 mM polypeptide, 100 mM ammonium acetate buffer pH 10.2, 30° C., 4 hours, darkness) was 63%, the “% fixing (mean), SEQ ID NO: 8 (X1-X4 lysine)” value ([3]; Example 4, twice 0.5 mM polypeptide, TRIS-HCl 100 mM, 'Fixing' = not quantifiable) was 62% and the “% fixing, SEQ ID NO: 8 (X1-X4 lysine)” value ([3]; Example 5, twice 0.5 mM polypeptide, TRIS-HCl 100 mM, 'Fixing' = not quantifiable) was 62%. For the same compound, the “% fixing, SEQ ID NO: 7 (X1-X4 lysine)” value [4] was 100%, the “% fixing, SEQ ID NO: 19” value ([5]; Example 2, 0.5 mM polypeptide, 100 mM TRIS-HCl pH 8.3) was 100% and the “% fixing (mean), SEQ ID NO: 19” value ([5]; Example 4, twice 0.5 mM polypeptide, TRIS-HCl 100 mM) was 100%. For the same compound, the “% fixing, SEQ ID NO: 19” value ([5]; Example 5, twice 0.5 mM polypeptide, TRIS-HCl 100 mM) was 100% and the “sensitising capacity (sensitiser class)” value [6] was “strong sensitisers”.
